This note sets out measurements from US5968958A, “5-Methanesulfonamido-3H-isobenzofuran-1-ones as inhibitors of cyclooxygenase-2” (Merck Frosst Canada, Inc., priority 1997, dated 1999).

The target in one assay is T1, cyclooxygenase-1 (Homo sapiens, UniProt P23219).
T1 construct: human U-937 cells (which specifically express cyclooxygenase-1); endogenous in cells; host or cells: human U-937 cells
As to the kind of experiment: Whole cell cyclooxygenase assay, PGE2 synthesis in human U-937 cells (COX-1). Particulars: inhibition of PGE2 production, arachidonic acid, radioimmunoassay. It counts as cell-based. As for the experimental part: (§1) Inhibition of Cyclooxygenase Activity
(§2) Compounds are tested as inhibitors of cyclooxygenase activity in whole cell cyclooxygenase assays. Both of these assays measure prostaglandin E2 synthesis in response to arachidonic acid, using a radioimmunoassay. Cells used for these assays are human osteosarcoma 143 cells (which specifically express cyclooxygenase-2) and human U-937 cells (which specifically express cyclooxygenase-1). In these assays, 100% activity is defined as the difference between prostaglandin E2 synthesis in the absence and presence of arachidonate.
(§3) In the assay, inhibition is determined by measuring the amount of prostaglandin E2 (PGE2) synthesized in the presence of arachidonic acid, cyclooxygenase-1 or cyclooxygenase-2 and a putative inhibitor. The IC50 values represent the concentration of putative inhibitor required to return PGE2 synthesis to 50% of that obtained as compared to the uninhibited control.

A further assay deals with Rat Paw edema. The assay can be described thus: Rat Paw Edema Assay (carrageenan). It counts as in vivo, rat (male Sprague-Dawley). Conditions: po, 1 hr before subplantar carrageenan (500 μg per paw), paw volume increase at 3 h. As for the experimental part: Rat Paw Edema Assay--Protocol
Male Sprague-Dawley rats (150-200 g) are fasted overnight and are given po either vehicle (1% methocell or 5% Tween 80) or a test compound. One hr later, a line is drawn using a permanent marker at the level above the ankle in one hind paw to define the area of the paw to be monitored. The paw volume (V0) is measured using a plethysmometer (Ugo-Basile, Italy) based on the principle of water displacement. The animals are then injected subplantarly with 50 μl of 1% carrageenan solution in saline (FMC Corp, Maine) into the paw using an insulin syringe with a 25-gauge needle (i.e., 500 μg carrageenan per paw). Three h later, the paw volume (V3) is measured and the increases in paw volume (V3 -V0) are calculated. The animals are sacrificed by CO2 asphyxiation and the absence or presence of stomach lesions scored. Data is compared with the vehicle-control values and percent inhibition calculated. All treatment groups are coded to eliminate observer bias.

Another assay deals with T2, cyclooxygenase-2 (Homo sapiens, UniProt P35354).
T2 construct: human osteosarcoma 143 cells (which specifically express cyclooxygenase-2); endogenous in cells; host or cells: human osteosarcoma 143 cells
T2 sequence (P35354 18-604): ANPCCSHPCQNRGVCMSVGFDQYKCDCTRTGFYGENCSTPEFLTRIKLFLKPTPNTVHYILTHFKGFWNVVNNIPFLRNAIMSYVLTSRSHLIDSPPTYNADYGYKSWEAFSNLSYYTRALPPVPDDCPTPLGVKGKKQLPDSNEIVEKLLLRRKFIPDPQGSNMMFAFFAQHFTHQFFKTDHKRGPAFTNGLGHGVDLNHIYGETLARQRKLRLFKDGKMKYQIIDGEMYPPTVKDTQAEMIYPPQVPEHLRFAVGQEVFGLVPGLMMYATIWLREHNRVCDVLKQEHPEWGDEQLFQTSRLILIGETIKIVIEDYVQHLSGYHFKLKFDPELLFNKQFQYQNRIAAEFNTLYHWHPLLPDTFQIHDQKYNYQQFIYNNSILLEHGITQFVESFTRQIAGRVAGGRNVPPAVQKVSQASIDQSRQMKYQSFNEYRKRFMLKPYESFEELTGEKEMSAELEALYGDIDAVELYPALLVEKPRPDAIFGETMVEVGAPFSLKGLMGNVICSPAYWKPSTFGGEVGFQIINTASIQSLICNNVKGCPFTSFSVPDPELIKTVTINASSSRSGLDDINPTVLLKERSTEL
The assay can be described thus: Whole cell cyclooxygenase assay, PGE2 synthesis in human osteosarcoma 143 cells (COX-2). The assay is classed as cell-based. The method, then:
as §1, §2, §3

Where [1] appears, read: inhibition of PGE2 production, human osteosarcoma 143 cells, arachidonic acid, radioimmunoassay, read-out: Osteosarcoma cells (COX-2) IC50.

pIC50: −log10 of the molar value. Where two headings read alike, the source gives them in different places.

T1 sequence (P23219 24-599): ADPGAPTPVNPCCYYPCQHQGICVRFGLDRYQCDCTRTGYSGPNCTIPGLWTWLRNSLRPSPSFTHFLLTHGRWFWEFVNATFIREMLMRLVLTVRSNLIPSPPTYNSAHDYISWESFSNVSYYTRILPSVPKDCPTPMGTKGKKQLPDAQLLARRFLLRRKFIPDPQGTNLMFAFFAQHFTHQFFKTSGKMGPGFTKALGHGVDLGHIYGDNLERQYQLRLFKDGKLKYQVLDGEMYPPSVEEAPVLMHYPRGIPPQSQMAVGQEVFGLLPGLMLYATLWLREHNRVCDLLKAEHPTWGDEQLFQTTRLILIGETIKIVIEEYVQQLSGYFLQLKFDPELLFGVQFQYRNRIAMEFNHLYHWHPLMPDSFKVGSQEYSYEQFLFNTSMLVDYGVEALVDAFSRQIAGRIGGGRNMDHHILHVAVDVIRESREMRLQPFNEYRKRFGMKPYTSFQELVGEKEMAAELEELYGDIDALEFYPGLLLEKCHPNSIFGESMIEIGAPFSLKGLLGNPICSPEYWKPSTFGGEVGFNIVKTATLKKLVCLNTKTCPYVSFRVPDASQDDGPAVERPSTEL

Turning to `CCc1csc(Sc2cc3c(cc2NS(C)(=O)=O)COC3=O)n1` [Example 1, 6-(4-Ethyl-2-thiazolythio)-5-methanesulfonamido-3H-isobenzofuran-1-one], the pIC50 against cyclooxygenase-1 was under 4.00; against cyclooxygenase-2, 8.22. Also, the ED30 in the assay on Rat Paw edema came to 0.16 mg/kg.

With `CS(=O)(=O)Nc1cc2c(cc1Sc1ccc(Cl)cn1)C(=O)OC2` [Example 2, 6-(5-Chloro-2-pyridylthio)-5-methanesulfonamido-3H-isobenzofuran-1-one], the pIC50 against cyclooxygenase-1 is under 4.00; on cyclooxygenase-2 (setting [1]) it was 7.48. Moreover, the ED30 in the assay on Rat Paw edema was determined as 1.3 mg/kg.

`CS(=O)(=O)Nc1cc2c(cc1Sc1nccs1)C(=O)OC2` [Example 3, 6-(2-Thiazolythio)-5-methanesulfonamido-3H-isobenzofuran-1-one]: the pIC50 was under 4.00 against cyclooxygenase-1 and 6.85 on cyclooxygenase-2 (setting [1]).

As for `Cc1csc(Sc2cc3c(cc2NS(C)(=O)=O)COC3=O)n1` [Example 4, 5-Methanesulfonamido-6-(4-methyl-2-thiazolythio)-3H-isobenzofuran-1-one], the pIC50 against cyclooxygenase-1 was under 4.00; at cyclooxygenase-2 (setting [1]), 7.44. The ED30 in the assay with Rat Paw edema came to 1 mg/kg.

What is called pIC50 is the negative decadic logarithm of the IC50, by convention in mol/L.
